This note sets out measurements from article PMC11432330, “Novel Drug-like HsrA Inhibitors Exhibit Potent Narrow-Spectrum Antimicrobial Activities against Helicobacter pylori” (International Journal of Molecular Sciences, 2024).

One test deals with H. pylori HsrA. Nature of the test: Fluorescence-based thermal shift assay (HTS of Maybridge HitFinder library) for HsrA ligands. The class given is binding, Helicobacter pylori. The note with it: 10 µM HsrA, 250 μM compound, vs DMSO controls. Here is the method: High-throughput screening (HTS) of the Maybridge HitFinder^TM chemical library for H. pylori HsrA ligands was assessed by a fluorescence-based thermal shift assay, according to previously described procedures. Briefly, a reaction mixture containing 50 mM Tris-HCl (pH 8), 150 mM NaCl, 10% glycerol, 5 mM DTT, SYPRO® Orange ready-to-use fluorescent stain (Thermo Fisher Scientific) at a final concentration of 10 ×, and 10 µM HsrA was freshly prepared. Next, 90 μL was dispensed in every well of V-shape 96-well plates ABgene^TM Thermo-Fast^TM 96 (Thermo Fisher Scientific). Wells of columns 1 and 12 received 10 μL of DMSO (vehicle) and were used as the reference controls. The rest of the wells (columns 2 to 11) received 2.5 μL of four different compounds from the HitFinder library (250 μM as final concentration each). The unfolding curve corresponding to each well was registered from 25 °C to 75 °C in 1 °C steps using an Mx3005P™ qPCR System (Agilent Technologies, Inc., Santa Clara, CA, USA), and analyzed by Origin 7.0 (OriginLab, Northampton, MA, USA) using a homemade script that determined the midpoint temperature of unfolding (Tm).

Test [1] has as its target T1, C. jejuni response regulator CosR (Campylobacter jejuni, UniProt Q0PBF4). Briefly: EMSA: inhibition of in vitro DNA binding activity of CosR to promoter PsodB. The class given is biochemical. To be noted: 700 nM CosR, ligand 0.1-2 mM. The method, then: The DNA binding activities of recombinant HsrA and CosR were assessed in vitro by electrophoretic mobility shift assays (EMSAs). A 300-bp promoter region of the H. pylori 26695 operon porGDAB was used as the target sequence of HsrA in all EMSA experiments. Likewise, a 420-bp sequence of the C. jejuni sodB promoter (ATCC 33560) was used as the target DNA of CosR [90]. The oligonucleotides used for the synthesis of these promoter regions are described in Supplementary Table S4. Response regulators HsrA (6 μM) or CosR (700 nM) were mixed with 120 ng of their target promoters in a reaction buffer of 10 mM bis-Tris (pH 7.5), 40 mM KCl, 100 mg/L BSA, 1 mM DTT, and 5% glycerol. For the in vitro inhibition analyses, mixtures of target DNA and response regulator were exposed to 2, 1, 0.5, and 0.1 mM of each compound of interest, incubated at room temperature for 20 min, and then separated on a 6% non-denaturing electrophoresis. DMSO instead of inhibitors was included as a vehicle control, while an internal sequence of the Anabaena sp. pkn22 gene was used as the non-specific competitor in all assays. For DNA-protein binding visualization, gels were stained with the SYBR Safe DNA gel stain (Invitrogen) and analyzed with a Gel Doc 2000 Image Analyzer (Bio-Rad).

The target of test [2] is T1, C. jejuni response regulator CosR. Briefly: Isothermal titration calorimetry (ITC) with CosR. The class given is binding. Here is the method: Molecular interactions of the selected ligands with proteins HsrA or CosR were studied by isothermal titration calorimetry (ITC), as previously described. Titrations were assessed in a high-sensitivity MicroCal Auto-iTC200 calorimeter (Malvern Panalytical, Malvern, UK). Experiments were carried out at 25 °C in freshly prepared buffer containing 50 mM Tris-HCl [pH 8], 150 mM NaCl, 10% glycerol, and 1% DMSO. A 20 µM solution of protein was located in the calorimetric cell. Then, a sequence of 19 injections of 2 µL volume each with a 200 µM solution of the corresponding ligand was programmed with a time spacing of 150 s, a stirring speed of 750 rpm, and a reference power of 10 µcal/s in the sample cell. Thermodynamic properties such as binding stoichiometry, dissociation constants, and binding enthalpies were calculated by nonlinear least-squares regression data analysis using Origin 7.0 software.

T1 sequence (Q0PBF4 entry or part of it): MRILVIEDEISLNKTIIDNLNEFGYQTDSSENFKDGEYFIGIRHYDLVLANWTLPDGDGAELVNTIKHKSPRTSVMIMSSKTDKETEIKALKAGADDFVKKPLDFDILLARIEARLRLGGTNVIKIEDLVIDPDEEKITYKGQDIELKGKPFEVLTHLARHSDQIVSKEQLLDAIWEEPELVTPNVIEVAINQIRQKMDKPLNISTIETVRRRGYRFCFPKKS

For the compound `CSc1cccc(NC(=S)NCCNc2c([N+](=O)[O-])cc(C(F)(F)F)cc2[N+](=O)[O-])c1` [Ligand IV], the “ΔTm (upshift of midpoint temperature of unfolding of HsrA)” value with H. pylori HsrA amounted to 16 °C.
Regarding `NC(=NOC(=O)Nc1ccc(Cl)cc1)c1csc([N+](=O)[O-])c1` [Ligand V, N′-{[(4-chloroanilino)carbonyl]}oxy-5-nitrothiophene-3-carboximidamide], the “Inhibition of in vitro DNA binding activity of CosR (EMSA)” value in test [1] is given as “noticeable inhibition”. Further, the ΔG in test [2] (absolute error 0.1) is -6.2 kcal/mol. The ΔH in test [2] (absolute error 0.4) was -0.9 kcal/mol. The Kd in test [2] (relative error 15%) came out at 26 µM.
On to `N#C/C(=C\C=C\c1ccccc1)c1nc2ccccc2[nH]1` [Ligand XII], for which, in the test with H. pylori HsrA, the “ΔTm (upshift of midpoint temperature of unfolding of HsrA)” value is 9 °C.
